Common to all, as to format: biochemical
The target of one test is T1, ADAM17 (Homo sapiens, UniProt P78536).
T1 construct: purchased R&D Systems 930-ADB
As to the kind of experiment: ADAM17 assay. The procedure:
MMP-1, MMP-2, MMP-8, MMP-9, MMP-10, MMP-13, MMP-14, ADAM10, ADAM17 and Mca-KPLGL-Dpa-AR-NH2 fluorogenic peptide substrate were purchased from R&D Systems (cat # 901-MP, 902-MP, 908-MP, 911-MP, 910-MP, 511-MM, 918-MP, 936-AD, 930-ADB, and ES010, respectively). All common chemicals were purchased from Sigma. NFF449 was purchased from Tocris (cat# 1391) and actinonin was from Sigma-Aldrich, St. Louis, MO, USA (cat# 01809).
Both assays followed the same general protocol. 2.5 µL of 2× enzyme solution (20 nM) in assay buffer (10 mM HEPES, 0.001% Brij-35, pH 7.5) were added to solid bottom black 384 plates (Greiner, cat# 789075). Next, test compounds and pharmacological controls were added to corresponding wells using a 384-pin tool device (V&P Scientific, San Diego). After 30 min incubation at RT, the reactions were started by addition of 2.5 µL of 2× solutions of substrate (R&D Systems cat#: ES010, Mca-KPLGL-Dpa-AR-NH2, 20 µM). Reactions were incubated at RT for 2 h, after which the fluorescence was measured using a Perkin Elmer Viewlux multimode microplate imager (λexcitation = 324 nm, λemission = 393 nm). All compounds were tested in 10-point, 1:3 serial dilutions dose-response format starting with highest concentration of 100 µM. IC50 values were determined using non-linear regression analysis using the GraphPad Prism 8.0 suite of programs.

In the next test the target is T2, meprin α (Homo sapiens, UniProt Q16819).
T2 construct: Strep-tag; made in house; host or cells: BTI-TN-5B1-4 insect cells (baculovirus, amplified in Sf9)
T2 sequence (Q16819 66-746): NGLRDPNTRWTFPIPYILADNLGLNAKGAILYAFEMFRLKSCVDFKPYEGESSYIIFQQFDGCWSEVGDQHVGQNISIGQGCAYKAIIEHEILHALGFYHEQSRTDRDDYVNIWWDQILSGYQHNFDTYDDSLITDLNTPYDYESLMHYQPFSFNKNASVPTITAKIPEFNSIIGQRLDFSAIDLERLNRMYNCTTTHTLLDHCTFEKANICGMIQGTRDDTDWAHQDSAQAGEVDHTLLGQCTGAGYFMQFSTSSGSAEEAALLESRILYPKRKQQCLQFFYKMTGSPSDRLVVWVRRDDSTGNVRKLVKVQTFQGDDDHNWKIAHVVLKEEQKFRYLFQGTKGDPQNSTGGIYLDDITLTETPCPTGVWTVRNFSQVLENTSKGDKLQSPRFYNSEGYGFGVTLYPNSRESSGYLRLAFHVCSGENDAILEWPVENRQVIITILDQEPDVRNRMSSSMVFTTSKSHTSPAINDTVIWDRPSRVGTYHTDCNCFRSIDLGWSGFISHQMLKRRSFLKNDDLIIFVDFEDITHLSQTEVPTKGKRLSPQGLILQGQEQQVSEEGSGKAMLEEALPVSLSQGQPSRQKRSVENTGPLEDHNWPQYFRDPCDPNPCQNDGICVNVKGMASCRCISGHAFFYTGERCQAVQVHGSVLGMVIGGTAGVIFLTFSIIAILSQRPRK
Briefly: Meprin α assay in a 384-well plate (fluorogenic substrate Mca-YVADAPK-K(Dnp)). The procedure: (§1) Recombinant human meprin α and meprin β were expressed using the Bac-to-Bac expression system (Gibco Life Technologies, Paisley, UK) as described before. Media and supplements were obtained from Gibco Life Technologies. Recombinant Baculoviruses were amplified in adherently growing Spodoptera frugiperda (Sf)9 insect cells at 27 °C in Grace’s insect medium supplemented with 10% fetal bovine serum, 50 units/mL penicillin, and 50 μg/mL streptomycin. Protein expression was performed in 500 mL suspension cultures of BTI-TN-5B1-4 insect cells growing in Express Five SFM supplemented with 4 mM glutamine, 50 units/mL penicillin, and 50 μg/mL streptomycin in Fernbach-flasks using a Multitron orbital shaker (INFORS AG, Bottmingen, Switzerland). Cells were infected at a density of 2 × 10^6 cells/mL with an amplified viral stock at a MOI of ~10. […] Meprins were activated by trypsin, which was removed afterwards by affinity chromatography using a column containing immobilized chicken ovomucoid, a trypsin inhibitor.
(§2) Both assays followed the same general protocol. […] After 30 min incubation at RT, the reactions were started by addition of 5 µL of 2× solutions of substrates (20 µM, meprin α Mca-YVADAPK-K(Dnp), and for meprin β Mca-EDEDED-K(Dnp)).

The target in another test is T3, human meprin β (Homo sapiens, UniProt Q16820).
T3 construct: His-tag; made in house; host or cells: BTI-TN-5B1-4 insect cells (baculovirus, amplified in Sf9)
T3 sequence (Q16820 62-701): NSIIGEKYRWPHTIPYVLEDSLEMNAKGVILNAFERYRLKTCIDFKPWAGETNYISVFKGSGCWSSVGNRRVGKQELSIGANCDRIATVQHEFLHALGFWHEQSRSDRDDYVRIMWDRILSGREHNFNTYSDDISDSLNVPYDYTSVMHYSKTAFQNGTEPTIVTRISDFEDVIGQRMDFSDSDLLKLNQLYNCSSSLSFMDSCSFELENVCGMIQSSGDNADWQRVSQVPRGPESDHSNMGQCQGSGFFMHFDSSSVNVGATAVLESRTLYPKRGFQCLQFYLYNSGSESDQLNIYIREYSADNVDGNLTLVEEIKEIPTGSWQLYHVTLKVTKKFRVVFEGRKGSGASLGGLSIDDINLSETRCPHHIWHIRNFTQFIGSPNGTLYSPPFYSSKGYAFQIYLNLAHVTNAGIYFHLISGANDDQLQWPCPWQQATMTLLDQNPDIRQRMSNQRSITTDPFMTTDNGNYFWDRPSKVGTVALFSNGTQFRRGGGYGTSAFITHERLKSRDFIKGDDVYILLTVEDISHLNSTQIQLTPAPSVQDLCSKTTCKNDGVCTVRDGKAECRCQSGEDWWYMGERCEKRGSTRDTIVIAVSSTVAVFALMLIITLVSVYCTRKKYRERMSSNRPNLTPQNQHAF
As to the kind of experiment: Meprin β assay in a 384-well plate (fluorogenic substrate Mca-EDEDED-K(Dnp)). The settings on record: for IC50: triplicate, ± SD. The procedure: as §1, §2

[1] abbreviates: scale-up batch, higher doses tested, Figure 4A.

Several values for one entry are separate records, joined by “and”; a condition that tells them apart may be missing. Equal values may be shown once. Read-outs that look alike come from different tables or passages of the source.

T1 sequence (P78536 215-824): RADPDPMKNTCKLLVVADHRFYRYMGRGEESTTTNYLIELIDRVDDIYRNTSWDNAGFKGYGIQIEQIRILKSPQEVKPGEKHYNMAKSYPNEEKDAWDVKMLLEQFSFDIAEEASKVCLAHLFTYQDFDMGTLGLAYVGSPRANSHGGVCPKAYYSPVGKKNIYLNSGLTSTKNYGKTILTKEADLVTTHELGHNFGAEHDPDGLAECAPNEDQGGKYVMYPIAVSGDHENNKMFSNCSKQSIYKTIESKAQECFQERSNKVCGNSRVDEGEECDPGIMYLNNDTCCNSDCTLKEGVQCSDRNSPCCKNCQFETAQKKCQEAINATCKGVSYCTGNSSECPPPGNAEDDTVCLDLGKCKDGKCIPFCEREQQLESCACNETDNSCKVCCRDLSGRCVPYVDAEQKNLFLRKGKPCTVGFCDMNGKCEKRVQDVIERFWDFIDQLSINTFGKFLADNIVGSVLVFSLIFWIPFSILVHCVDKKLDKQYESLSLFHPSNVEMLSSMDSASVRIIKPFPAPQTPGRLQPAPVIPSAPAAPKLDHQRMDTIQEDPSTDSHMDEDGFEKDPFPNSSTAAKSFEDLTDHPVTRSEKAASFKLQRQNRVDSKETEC

As to `CCCCC[C@H](CC(=O)NO)C(=O)N[C@H](C(=O)N1CCC[C@H]1CO)C(C)C` [Actinonin, actinonin, reference compound], the IC50 – broadly, the concentration that gives 50% inhibition – turned out to be 200 ± 20 nM at ADAM17; 4 nM on meprin α (triplicate, ± SD); 4800 ± 500 nM on human meprin β.

As for `COc1cc(OC)nc(SCc2nnc(SCC(=O)NO)n2-c2ccc(N(C)C)cc2)n1` [SR24717], the 50% inhibitory concentration (IC50) was > 100000 nM against ADAM17; 490 to 670 nM against meprin α; 660 ± 30 nM against meprin α (triplicate, ± SD); ≥ 70000 nM and 70000 nM on human meprin β. The “fold more potent than the HTS hit SR19855 in binding meprin α” value on meprin α is ~ 2 fold. At meprin α (meprin α over meprin β), the “meprin α/β fold selectivity (ratio of IC50 values)” value was > 100 fold and 106 fold and ~ 106 fold. In addition, the “extent of meprin α inhibition (in words)” value on meprin α (setting [1]) is “full meprin α inhibition”. In addition, on human meprin β (setting [1]), the “extent of meprin β inhibition (in words)” value is given as “only partial meprin β inhibition”.

The values are drawn from paper PMC7997411, “Discovery and Optimization of Selective Inhibitors of Meprin α (Part II)” (Pharmaceuticals, 2021).
